Calls of active or inactive are those of the source. The rule behind the calls is not given here.
Columns and labels:
Staphylococcus aureus = test: Antibacterial activity against Staphylococcus aureus ATCC 29213 incubated for 18 hrs by microdilution method; assay type: functional, organism-based
Homo sapiens = species: Homo sapiens; test: Cytotoxicity against human ACP01 cells after 24 hrs by tetrazolium dye based assay; assay type: functional, cell-based
Klebsiella pneumoniae = test: Antibacterial activity against Klebsiella pneumoniae ATCC 700603 incubated for 18 hrs by microdilution method; assay type: functional, organism-based
MCF7 = test: Cytotoxicity against human MCF7 cells after 24 hrs by tetrazolium dye based assay; assay type: functional, cell-based
A549 = test: Cytotoxicity against human A549 cells after 24 hrs by tetrazolium dye based assay; assay type: functional, cell-based
HeLa = test: Cytotoxicity against human HeLa cells after 24 hrs by tetrazolium dye based assay; assay type: functional, cell-based
Enterococcus faecalis = test: Antibacterial activity against Enterococcus faecalis ATCC 29212 incubated for 18 hrs by microdilution method; assay type: functional, organism-based
MCF-10A = test: Cytotoxicity against human MCF10A cells after 24 hrs by tetrazolium dye based assay; assay type: cell-based
Pseudomonas aeruginosa = test: Antibacterial activity against Pseudomonas aeruginosa ATCC 27853 incubated for 18 hrs by microdilution method; assay type: functional, organism-based

| SMILES | Activity (Staphylococcus aureus) | Activity (Homo sapiens) | Activity (Klebsiella pneumoniae) | Activity (MCF7) | Activity (A549) | Activity (HeLa) | Activity (Enterococcus faecalis) | Activity (MCF-10A) | Activity (Pseudomonas aeruginosa) |
| --- | --- | --- | --- | --- | --- | --- | --- | --- | --- |
| C=CC(C)(C)c1[nH]c2ccccc2c1CCNC(=O)CC[C@H](O)C(=O)O | inactive | inactive | inactive | inactive | inactive | inactive | inactive | Non-Toxic | inactive |
| C=CC(C)(C)C(=O)Nc1ccccc1C(=O)CCNC(=O)CC[C@H](N)C(=O)O | inactive | inactive | inactive | inactive | inactive | inactive | inactive | Non-Toxic | inactive |
| C=CC(C)(C)c1[nH]c2ccccc2c(=O)c1CNC(=O)CC[C@H](N)C(=O)O | inactive | inactive | inactive | inactive | inactive | inactive | inactive | Non-Toxic | inactive |
| C=CC(C)(C)[C@@]1(CCNC(=O)CC[C@H](N)C(=O)O)C(=O)Nc2ccccc21 | inactive | inactive | inactive | inactive | inactive | inactive | inactive | Non-Toxic | inactive |
| C=CC(C)(C)[C@H]1Nc2ccccc2C(=O)[C@@H]1CNC(=O)CC[C@H](N)C(=O)O | inactive | inactive | inactive | inactive | inactive | inactive | inactive | Non-Toxic | inactive |
| C=CC(C)(C)c1[nH]c2ccccc2c1CCNC(=O)CC[C@H](N)C(=O)O | inactive | inactive | inactive | inactive | inactive | inactive | inactive | Non-Toxic | inactive |
